Measured values from US20240254109A1, “SALT CONTAINING PIPERAZINE POLYCYCLIC DERIVATIVE, CRYSTAL FORM THEREOF, PREPARATION METHOD THEREFOR, AND USE THEREOF” (Shanghai Hansoh Biomedical Co., Ltd., priority 2021, published 2024).
One block for each molecule: values may come before it.

Assays:
[1] = Study on the crystal form of salt of compound (crystallization with counter ion acids); assay type: physicochemical; settings: for Phenomenon after the addition of acid / Results: volatilization method; for Phenomenon after the addition of acid: crystal form B of free base in tetrahydrofuran, base: acid=1:1.2; for Results: tetrahydrofuran volatilized at room temperature; for Phenomenon: base: acid=1:1.2, 25° C.
Procedure: To identify which counter ion acids can form crystal form of salt of compound by selecting different counter ion acids according to suitable crystallization methods.
1 mL of the solution was taken into a glass bottle, and different counter ion acids (molar reaction ratio of base: acid=1:1.2) were added, and then the glass bottle was opened at room temperature to volatile solvent. The amorphous or oily was pulped with 200 μL of ethyl acetate.
1) 10 mg of crystal form B of free base was weighed, and 200 μL of methanol solvent was added, and counter ion acid (molar reaction ratio of base: acid=1:1.2) was added respectively at 25° C.
2) 85 mg of crystal form B of free base was weighed, and ethyl acetate was added to produce a clear solution. Different counter ion acids (molar reaction ratio of base: acid=1:1.2) were added respectively at 25° C.

[2] = Study on the salt form of compound (salt forming with counter ion acids); assay type: physicochemical; settings: for Phenomenon after the addition of acid: acid 1:1.2, room temperature
Procedure: To identify which counter ion acids can form salts with the compound by selecting different counter ion acids.
10 mg of free base was weighed. 200 μL of tetrahydrofuran was added. Different counter ion acids were added separately at room temperature, and the solvent was volatilized to dry. If a solid was precipitated during the reaction, the suspension was centrifuged, and the resulting solid was vacuum dried at 50° C. […] The resulting suspension was centrifuged and the supernatant was removed. The solid was dried in vacuum at 50° C.
10 mg of free base was weighed, and 200 μL of acetone was added. Different counter ion acids were added separately at room temperature, and the solvent was volatilized to dry. If a solid was precipitated, the resulting solid was dried in vacuum overnight at 50° C. […] The resulting suspension was centrifuged, and the supernatant was removed. The solid was dried in vacuum at 50° C.
10 mg of free base compound was weighed, and 100 μL of organic solvent was added to the suspension state. The corresponding acid was added according to the molar ratio of 1:1.2 at room temperature, and the reaction was stirred for 4d. The reaction was centrifuged, and the resulting solid was dried in vacuum at 50° C.

[3] = free base suspended in 100 μL Isopropanol
[4] = free base suspended in 100 μL Isopropanol, acid 1:1.2, stirred 4d

Compound: CC(=O)O [1.0M acetic acid (in methanol)]
Phenomenon after the addition of acid [1]: Clear
Results [1]: Oil or gel

Compound: Cl [1.0M hydrochloric acid (in methanol)]
Phenomenon ([1]; solvent 2-Butanone): Clear
Phenomenon ([1]; solvent 2-Methyl-tetrahydrofuran): Suspension
Phenomenon ([1]; solvent Acetone): Suspension
Phenomenon ([1]; solvent Ethanol): Clear
Phenomenon ([1]; solvent Ethyl acetate): Suspension
Phenomenon ([1]; solvent Ethyl formate): Precipitation
Phenomenon ([1]; solvent Isopropanol): Suspension
Phenomenon ([1]; solvent Isopropyl acetate): Suspension
Phenomenon ([1]; solvent Methyl tert-butyl ether): Suspension
Phenomenon after the addition of acid [1]: Clear
Results [1]: Oil or gel

Compound: CC(=O)O [1M acetic acid in methanol]
Phenomenon ([1]; solvent Isopropanol): Turbid
Phenomenon ([1]; solvent Isopropyl ether): Turbid

Compound: CC(=O)O [Acetic acid]
Phenomenon after the addition of acid [2, 3]: muddy
Product [2, 4]: Salt forming

Continued, values first:

Phenomenon after the addition of acid [1]: Clear
Results [1]: Oil or gel
Compound: Br [1.0M hydrobromic acid (in methanol)]

Phenomenon after the addition of acid [1]: Clear
Results [1]: Oil or gel
Compound: CS(=O)(=O)O [1.0M methanesulfonic acid (in ethanol)]

Phenomenon after the addition of acid [2, 3]: muddy
Product [2, 4]: Salt forming
Compound: O=C(O)/C=C/C(=O)O [Fumaric acid]

Product ([2]; acetone volatilized to dry): Gel
After adding 200 μL of ethyl acetate ([2]; stirred 4 hours at room temperature): Gel
Compound: CS(=O)(=O)O [Methanesulfonic acid (1 mol/L in EtOH)]
